# Results published in the supplement of paper PMC10307832.
# Columns and labels:
# Test in all cases: relative viability (nuclei count vs DMSO), 5 days (fraction); higher = more cells survive
# Serdemetan + Lapatinib = compound: c1ccc2c(CCNc3ccc(Nc4ccncc4)cc3)c[nH]c2c1 [Serdemetan] + CS(=O)(=O)CCNCc1ccc(-c2ccc3ncnc(Nc4ccc(OCc5cccc(F)c5)c(Cl)c4)c3c2)o1 [Lapatinib] (partner 2 µM)
# Summary of the method: (§1)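 Medians of duplicate plates are given as relative viability. That measure is the nuclei count in treated wells divided by the count in vehicle wells. Counts were taken on 4× images of lung cancer cell lines in 1536-well plates, 5 days after pin-tool dosing the day after seeding with one drug alone or a fixed anchor-drug dose plus five library-drug doses (not always all listed) in √10 steps.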
# Selisistat + Phenformin = compound: C1CC(C2=C(C1)C3=C(N2)C=CC(=C3)Cl)C(=O)N [Selisistat] + N=C(N)NC(=N)NCCc1ccccc1 [Phenformin] (partner 250 µM)
# Summary of the method: as §1
# Selisistat + Vorinostat = compound: C1CC(C2=C(C1)C3=C(N2)C=CC(=C3)Cl)C(=O)N [Selisistat] + O=C(CCCCCCC(=O)Nc1ccccc1)NO [Vorinostat] (partner 1 µM)
# Summary of the method: as §1
# Serdemetan + Vorinostat = compound: c1ccc2c(CCNc3ccc(Nc4ccncc4)cc3)c[nH]c2c1 [Serdemetan] + O=C(CCCCCCC(=O)Nc1ccccc1)NO [Vorinostat] (partner 1 µM)
# Summary of the method: as §1
Cell Line,relative viability (Serdemetan + Lapatinib; first compound 0.04 µM),relative viability (Serdemetan + Lapatinib; first compound 0.1265 µM),relative viability (Serdemetan + Lapatinib; first compound 0.4 µM),relative viability (Serdemetan + Lapatinib; first compound 1.265 µM),relative viability (Serdemetan + Lapatinib; first compound 4 µM),relative viability (Selisistat + Phenformin; first compound 0.4 µM),relative viability (Selisistat + Phenformin; first compound 1.265 µM),relative viability (Selisistat + Phenformin; first compound 4 µM),relative viability (Selisistat + Phenformin; first compound 12.65 µM),relative viability (Selisistat + Phenformin; first compound 40 µM),relative viability (Selisistat + Vorinostat; first compound 0.4 µM),relative viability (Selisistat + Vorinostat; first compound 1.265 µM),relative viability (Selisistat + Vorinostat; first compound 4 µM),relative viability (Selisistat + Vorinostat; first compound 12.65 µM),relative viability (Selisistat + Vorinostat; first compound 40 µM),relative viability (Serdemetan + Vorinostat; first compound 0.04 µM),relative viability (Serdemetan + Vorinostat; first compound 0.1265 µM),relative viability (Serdemetan + Vorinostat; first compound 0.4 µM),relative viability (Serdemetan + Vorinostat; first compound 1.265 µM),relative viability (Serdemetan + Vorinostat; first compound 4 µM)
NCI-H1650,0.718,0.768,0.599,0.846,0.558,0.375,0.448,0.336,0.361,0.465,0.578,0.533,0.704,0.726,0.67,0.406,0.663,0.518,0.291,0.42
NCI-H2009,0.851,1.03,0.889,0.822,0.691,0.509,0.483,0.366,0.449,0.422,0.774,0.786,0.77,0.741,0.793,0.583,0.695,0.805,0.638,0.558
LOU-NH91,0.773,0.83,,0.606,0.83,0.822,0.691,0.627,0.71,0.728,0.962,0.919,0.824,0.835,0.959,0.954,0.954,,,0.935
NCI-H2405,1,1.06,1.17,1.07,0.963,0.401,0.333,0.222,0.393,0.397,1.07,1.19,,0.975,0.927,0.968,0.973,0.91,0.788,0.846
LCLC-97TM1,0.776,1.16,1.11,0.674,0.87,0.426,0.409,,0.362,0.461,0.646,0.72,,0.597,0.75,0.803,0.713,0.667,0.433,0.398
NCI-H596,1.07,0.972,1.09,0.871,0.666,0.742,0.816,0.584,0.593,0.716,0.698,0.609,0.521,0.75,0.773,0.568,0.543,0.578,0.428,0.425
NCI-H727,0.768,0.919,0.758,0.797,0.416,0.564,0.534,,0.398,0.478,1.31,1.15,0.658,1.2,1.16,1.3,1.12,1.12,1.28,0.849
H3255,0.222,0.229,0.258,0.251,0.186,0.375,0.363,0.327,0.405,0.374,0.885,0.93,0.822,0.834,0.872,0.701,0.797,,0.487,0.73
SK-MES-1,0.416,0.503,0.466,0.381,0.387,0.683,0.718,0.681,0.695,0.681,1.13,1.15,1.01,1.1,1.18,0.962,1.08,0.889,0.962,0.71
NCI-H1437,0.846,0.752,0.679,0.76,0.634,0.354,0.317,0.278,0.29,0.308,0.875,0.837,0.886,0.876,0.74,0.771,0.786,0.79,0.623,0.616
LU99A,1.03,0.927,1.07,0.363,0.229,0.897,0.956,0.956,0.806,0.832,0.514,0.5,0.6,0.51,0.558,0.535,0.459,0.379,0.211,0.249
HCC-827,0.168,0.178,,0.188,0.173,0.448,0.399,0.428,0.395,0.432,0.851,0.829,0.862,0.862,0.837,0.827,0.466,,0.597,0.449
LK-2,0.899,0.873,1.03,0.884,0.757,0.577,0.373,0.385,0.382,0.387,0.396,0.308,0.376,0.339,0.365,0.394,0.371,0.372,0.221,0.461
HCC-366,1.07,0.811,0.902,0.0523,0.0553,0.662,0.679,0.557,0.575,0.609,0.464,0.434,0.57,0.441,0.384,0.351,0.166,0.191,0.047,0.0752
BEN,0.623,0.704,0.592,0.359,0.556,0.246,0.286,0.256,0.239,0.275,0.625,0.663,0.545,0.636,0.657,0.603,0.54,0.688,0.615,0.514
NCI-H23,1.11,1.19,1.13,0.818,1.07,0.731,0.824,0.658,0.773,0.786,0.647,0.597,,0.663,0.802,0.664,0.695,0.643,,0.517
NCI-H1395,1.04,1.07,1.34,0.932,0.717,0.509,0.432,0.427,0.42,0.42,0.827,0.671,,0.536,0.702,0.574,0.848,0.696,0.526,0.508
201T,0.976,0.943,1.04,0.937,0.94,0.449,0.436,0.432,0.41,0.481,1.07,0.98,0.85,1,0.995,0.974,0.996,0.883,0.879,0.715
NCI-H2170,0.322,0.298,0.285,0.268,0.273,0.413,0.417,0.4,0.432,0.458,0.868,0.8,0.845,0.917,0.964,0.828,0.834,0.806,0.733,0.876
NCI-H460,0.878,0.936,0.866,0.659,0.132,0.598,0.565,0.366,0.495,0.571,0.691,0.772,0.808,0.723,0.807,0.595,0.435,0.296,0.0775,0.0723
NCI-H661,0.474,0.503,0.572,0.428,0.438,0.27,0.263,0.282,0.286,0.251,0.824,0.77,0.829,0.727,0.66,0.77,0.793,0.738,0.712,0.752
HCC-15,0.819,0.847,0.84,0.657,0.637,0.515,0.524,,0.44,0.501,0.912,0.931,0.875,0.878,1.07,0.848,0.83,0.704,0.681,0.456
ABC-1,1.08,1.07,1.25,,0.717,0.221,0.213,0.265,0.265,0.263,1.38,1.28,,1.09,1.19,0.985,0.949,0.989,0.832,0.787
EPLC-272H,1.01,0.905,1.07,0.618,0.944,0.302,0.322,,0.288,0.296,0.453,0.729,0.52,0.529,0.693,0.396,0.654,0.532,0.304,0.218
